Reference: article PMC4717870, “Evaluation of fluoropyruvate as nucleophile in reactions catalysed by N-acetyl neuraminic acid lyase variants: scope, limitations and stereoselectivity” (Organic & Biomolecular Chemistry, 2015)

Target: T1, S. aureus NAL (Staphylococcus aureus, UniProt Q2G160)
T1 construct: gene nanA; crystal structure
Assay: X-ray crystal structure of the complex
Format: binding
Details: covalent; Z-configured enamine observed in the active site

T1 sequence (Q2G160 whole entry): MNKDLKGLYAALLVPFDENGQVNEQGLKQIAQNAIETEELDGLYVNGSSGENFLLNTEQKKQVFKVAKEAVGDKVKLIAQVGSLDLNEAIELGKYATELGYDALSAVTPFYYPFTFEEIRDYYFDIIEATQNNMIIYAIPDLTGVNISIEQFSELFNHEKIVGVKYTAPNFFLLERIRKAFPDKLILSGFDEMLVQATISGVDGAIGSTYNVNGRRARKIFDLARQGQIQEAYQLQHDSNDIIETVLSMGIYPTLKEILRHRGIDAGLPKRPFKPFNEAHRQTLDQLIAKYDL

In the case of `O=C(O)C(=O)CF` [fluoropyruvate], the “X-ray crystal structure of the complex” value is reported as “the crystal structure of S. aureus NAL was determined in complex with fluoropyruvate”.
